Assay results published in PubChem BioAssay AID1671268.

Target: Receptor-type tyrosine-protein kinase FLT3 (Homo sapiens) (UniProt P36888)
Test: inhibition of human FLT3 receptor tyrosine kinase – biochemical, Z'-LYTE, FRET, protease-coupled, direct format, dose response (AID 1671268)
Settings: recombinant FLT3, Z'-LYTE FRET peptide phosphorylation

Sequence of Receptor-type tyrosine-protein kinase FLT3 (Homo sapiens) (P36888 whole entry, looked up): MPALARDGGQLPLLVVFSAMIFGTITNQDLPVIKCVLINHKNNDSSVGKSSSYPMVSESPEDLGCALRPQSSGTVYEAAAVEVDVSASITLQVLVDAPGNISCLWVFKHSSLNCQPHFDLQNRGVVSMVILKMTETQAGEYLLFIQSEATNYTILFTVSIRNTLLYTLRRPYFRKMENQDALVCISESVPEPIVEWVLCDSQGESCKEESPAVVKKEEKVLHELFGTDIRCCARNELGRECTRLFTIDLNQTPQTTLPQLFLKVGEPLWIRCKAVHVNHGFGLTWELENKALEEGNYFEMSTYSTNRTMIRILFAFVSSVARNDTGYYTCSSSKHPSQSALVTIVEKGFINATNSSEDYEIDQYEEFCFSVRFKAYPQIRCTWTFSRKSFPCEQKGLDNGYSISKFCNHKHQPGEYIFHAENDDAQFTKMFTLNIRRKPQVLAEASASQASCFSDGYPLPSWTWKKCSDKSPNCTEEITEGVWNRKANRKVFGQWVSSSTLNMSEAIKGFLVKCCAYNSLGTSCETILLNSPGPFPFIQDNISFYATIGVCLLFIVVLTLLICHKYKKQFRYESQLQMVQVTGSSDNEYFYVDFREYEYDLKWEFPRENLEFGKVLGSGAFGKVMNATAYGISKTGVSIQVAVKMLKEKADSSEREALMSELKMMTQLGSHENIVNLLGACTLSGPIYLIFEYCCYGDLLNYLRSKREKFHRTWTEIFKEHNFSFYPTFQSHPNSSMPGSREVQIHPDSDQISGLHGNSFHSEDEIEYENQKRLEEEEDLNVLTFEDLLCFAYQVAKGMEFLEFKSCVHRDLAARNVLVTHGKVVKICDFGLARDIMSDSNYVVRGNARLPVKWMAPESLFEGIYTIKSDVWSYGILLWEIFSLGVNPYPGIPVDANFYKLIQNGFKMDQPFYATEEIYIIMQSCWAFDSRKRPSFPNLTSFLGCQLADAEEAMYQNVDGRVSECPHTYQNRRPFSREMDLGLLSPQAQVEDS

- IC50: 2.94 µM
Structure (SMILES): COc1cc2ncnc(Nc3cccc(Cl)c3)c2cc1OC
